We go through 10 compounds from article PMC7850424 (Journal of Enzyme Inhibition and Medicinal Chemistry, 2021).

The target in experiment [1] is T1, SARS-CoV-2 3CL^pro (Severe acute respiratory syndrome coronavirus 2, UniProt P0DTD1). Kind of experiment: biochemical. As to conditions: for inhibition at 50 µM: read-out: % Inhibition at 50 μM, 50 μM compound; for % Inhibition at 50 μM: 50 μM compound.
For experiment [2], the system named is SARS-CoV-2 (C-Tan-nCoV Wuhan strain 01). Briefly: microbe, parasite or virus in culture. Format: cell-based.
The target of experiment [3] is T1, SARS-CoV-2 3CL^pro. Format: biochemical.
Experiment [4] concerns the target SARS-CoV 3CL^pro (Severe acute respiratory syndrome coronavirus, UniProt P0C6X7). Format: biochemical.
Experiment [5] relates to SARS-CoV. As to conditions: cited from earlier work.

Structures are written as SMILES.

As usually defined, the inhibition is the percentage by which the read-out fell short of the control. As a reminder, the EC50 is the midpoint of the concentration-response curve. Low readings indicate an effect from little substance, high ones a need for much substance.

Consider `O=c1cc(-c2ccccc2)oc2ccc(O)c(O)c12` [5,6-Dihydroxyflavone], for which the inhibition at 50 µM in experiment [1] came out at 26.6 ± 0.4%. Take `O=c1cc(-c2ccccc2)oc2cc(O)c(O)cc12` [6,7-Dihydroxyflavone]: the inhibition at 50 µM in experiment [1] is 56.7 ± 2%. `O=c1cc(-c2ccccc2)oc2cc(O)c(O)c(O)c12` [Baicalein]: the “inhibition activity at the post-entry stage” value in experiment [2] is listed as “mainly active”. Besides, the EC50 in experiment [2] (Severe acute respiratory syndrome coronavirus 2, Vero, 48 h) was 2900 nM. Also, the “anti-SARS-CoV-2 3CLpro activity in cell lysate” value in experiment [3] is “showed inhibition activity”. Also, the “inhibition of SARS-CoV 3CLpro activity” value in experiment [4] was “inhibit”. For `O=C(O)[C@H]1O[C@@H](Oc2cc3oc(-c4ccccc4)cc(=O)c3c(O)c2O)[C@H](O)[C@@H](O)[C@@H]1O` [Baicalin], in experiment [1], the inhibition at 50 µM was about 41%. Same read-out and setting: the result for `O=c1cc(-c2ccccc2)oc2cc(O)cc(O)c12` [Chrysin] reads 2.6 ± 1.1%; that for `O=c1c(O)c(-c2ccc(O)cc2)oc2c(O)c(O)cc(O)c12` [Herbacetin], 59.1 ± 1.9%. In the case of `O=c1c(O)c(-c2cc(O)c(O)c(O)c2)oc2cc(O)cc(O)c12` [Myricetin], the inhibition at 50 µM in experiment [1] came to 30.8 ± 4.6%. Further, in experiment [5], the “inhibition of SARS-CoV” value was “reported to inhibit”. On to `O=c1cc(-c2ccc(O)cc2)oc2cc(O)c(O)c(O)c12` [Scutellarein], for which, in experiment [5], the “inhibition of SARS-CoV” value is “reported to inhibit”. Take `O=C(O)[C@H]1O[C@@H](Oc2cc3oc(-c4ccc(O)cc4)cc(=O)c3c(O)c2O)[C@H](O)[C@@H](O)[C@@H]1O` [Scutellarin]: the “% Inhibition at 50 μM” value in experiment [1] (50 µM) is on record as “mild inhibitory activity”. For the same compound, the inhibition at 50 µM in experiment [1] is 28.9 ± 1.6%. With `COc1c(O)cc(O)c2c(=O)cc(-c3ccccc3)oc12` [Wogonin], in experiment [1], the “% Inhibition at 50 μM” value was “not active” and the inhibition at 50 µM was 6.1 ± 0.8%.
